# Data published in US10507208B2, “Compositions, packaged pharmaceuticals, and methods of using hedgehog pathway modulators for the sensitization of resistant tumors” (priority 2015, dated 2019).
# Key:
# Assay type in all cases: cell-based
# [1] = test system: H295 (adrenal cortical carcinoma) cells; test: MTT assay, sensitization to vincristine or docetaxel in H295 cells; settings: vincristine or docetaxel plus sensitizer at 10, 1 or 0.1 micromolar, versus chemotherapy alone, FIGS. 10A-10H
# Procedure: (§1) Cancer cells grown in vitro are treated with chemotherapy drugs alone or simultaneously with a hedgehog pathway modulator, including itraconazole. The difference in cell death between cells treated with chemotherapy drugs alone or in simultaneous treatment with the hedgehog pathway modulators determines the degree of synergistic killing effect of the combination therapy.
# (§2) Cell culture: The H295 cell line was grown in DMEM (Dulbecco's Modified Eagles Medium), supplemented with insulin, transferring, and selenium, 10% Fetal bovine serum, and gentamicin. The Kelly cell line was grown in DMEM, supplemented with 10% Fetal bovine serum, and gentamicin. Cell-based experiments were conducted in a 37 degree incubator supplemented with 5% carbon dioxide.
# (§3) In vitro Pharmacology: H295 cells were plated in a 96-well dish at a density of 10000 cells per well and Kelly cells were plated at a density of 2000 cells per well. After 16 hours, cells were treated with 2-fold dilutions of vincristine (VCR) or docetaxel (DTX).
# (§4) MTT Assay: Drug containing media from all of the dishes were discarded and MTT solution was added at a concentration of 5 micrograms per ml. The dishes were returned to the incubator for 4 hours.
# [2] = test system: Kelly (neuroblastoma) cells; test: MTT assay, sensitization to vincristine or docetaxel in Kelly cells; settings: vincristine or docetaxel plus sensitizer at 10, 1 or 0.1 micromolar, versus chemotherapy alone, FIGS. 10A-10H
# Procedure: as §1, §2, §3, §4
# [3] = test system: HeLa (cervical cancer) cells; test: MTT assay, sensitization to vincristine or docetaxel in HeLa cells; settings: HeLa cells (pre-exposed to chemotherapy, second-line model); sensitizer 10, 1 or 0.1 micromolar; FIGS. 10I-10L
structure (smiles),measurement,setting,value
CC1=C2C[C@H]3[C@@H](CC=C4C[C@@H](O)CC[C@@]43C)[C@@H]2CC[C@]12O[C@@H]1C[C@H](C)CN[C@H]1[C@H]2C [cyclopamine],concentration of chemotherapy necessary to stop proliferation as well as kill half of the amount of cells (IC50),[1],remains less than concentration of chemotherapy alone
same,concentration of chemotherapy necessary to stop proliferation as well as kill half of the amount of cells (IC50),[2],remains less than concentration of chemotherapy alone
same,sensitization to vincristine and docetaxel,[3],did not respond
